Assays:
[1] = test system: neuromuscular strength in mice; assay: Grip strength test; assay type: in vivo; details: 50 mg/kg i.p., 30 min before test
Procedure: The experiments were conducted on adult male albino Swiss mice weighing 22–26 g. The animals were kept in colony cages under standardized laboratory conditions: natural light–dark cycle 12/12 h, temperature 20–24 °C, air humidity 45–65% and free access to tap water and food (chow pellets). After 7 days of adaptation to laboratory conditions, the animals were randomly assigned to experimental groups consisting of 8 mice. The experimental procedures described herein were approved by the Local Ethics Committee in Lublin, Poland (approval numbers: 71/2020 and 13/2021), and were conducted in accordance with EU Directive 2010/63/EU for animal experiments. All efforts were made to minimize animal suffering and to use only the number of animals necessary to produce reliable scientific data according to the 3Rs rule. The grip strength test was carried out according to the methodology described by Socała et al.. Neuromuscular strength was measured just before the ivPTZ seizure threshold test to limit the number of animals used. The ED50 or TD50 values for tested substances in the acute animal models of seizures were calculated using the computer log-probit analysis. Subsequently, the ED50 and TD50 values (±SEM) were statistically analyzed using one-way analysis of variance (ANOVA) followed by the post hoc Dunnett’s test for multiple comparisons. Differences among values were considered statistically significant if p < 0.05. GraphPad Prism version 8 for Windows (GraphPad Software, San Diego, CA, USA) was used as a statistical software program. The results obtained from the acute ivPTZ test and grip strength test were evaluated by a Student’s t test. Fisher’s exact probability test was used to analyze protection from tonic forelimb and hindlimb extension in the ivPTZ test. Figure 8 Effects of KA-228 and KA-232 on neuromuscular strength in mice. KA-228 and KA-232 were administered i.p., 30 min before the test. Control animals received vehicle. […] The statistical significance was evaluated using the Student’s t test: * p < 0.05 vs. the vehicle-treated group (GraphPad Prism 8).

[2] = test system: Na^+ channel (site 2); assay: Radioligand binding, Na+ channel (site 2); set-up: species or system rat
Procedure: (§1) Dysfunction of both sodium and calcium ion channels is known to be one of the crucial reasons behind the pathogenesis of seizures. Consequently, these ion channels are molecular targets for several clinically important ASDs such as lacosamide, lamotrigine, carbamazepine, oxcarbazepine and compounds currently under preclinical and clinical studies. Thus, for KA-228 and KA-232, we tested herein their binding profile toward the aforementioned ion channels at concentrations of 10 and 100 µM (Table 3). […] Apart from in vitro studies focused on explaining the mechanism of action, KA-232 was additionally tested for its interaction with the potassium channel (hERG) which is recognized as one of the most important ‘off-targets’ responsible for harmful arrhythmogenic activity. Thus, the interaction of potential drug candidates with hERG must be excluded at an early stage of development.
(§2) Binding studies were carried out commercially in Eurofins Laboratories (Poitiers, France or New Taipei City, Taiwan).

[3] = test system: seizure susceptibility in mice; assay: Timed ivPTZ seizure threshold test; assay type: in vivo; details: 50 mg/kg i.p., 30 min before ivPTZ
Procedure: (§3) The experiments were conducted on adult male albino Swiss mice weighing 22–26 g. The animals were kept in colony cages under standardized laboratory conditions: natural light–dark cycle 12/12 h, temperature 20–24 °C, air humidity 45–65% and free access to tap water and food (chow pellets). After 7 days of adaptation to laboratory conditions, the animals were randomly assigned to experimental groups consisting of 8 mice. The experimental procedures described herein were approved by the Local Ethics Committee in Lublin, Poland (approval numbers: 71/2020 and 13/2021), and were conducted in accordance with EU Directive 2010/63/EU for animal experiments. All efforts were made to minimize animal suffering and to use only the number of animals necessary to produce reliable scientific data according to the 3Rs rule.
The timed ivPTZ seizure threshold test was carried out according to the method described by Socała et al.. KA-228 and KA-232 were suspended in a 1% solution of Tween 80 and administered i.p. 30 min before the test. In the experiment with KA-232, two separate control groups were used because the effects of KA-232 at a dose of 50 and 100 mg/kg were determined on different days.
(§4) The ED50 or TD50 values for tested substances in the acute animal models of seizures were calculated using the computer log-probit analysis. Subsequently, the ED50 and TD50 values (±SEM) were statistically analyzed using one-way analysis of variance (ANOVA) followed by the post hoc Dunnett’s test for multiple comparisons. Differences among values were considered statistically significant if p < 0.05. GraphPad Prism version 8 for Windows (GraphPad Software, San Diego, CA, USA) was used as a statistical software program. The results obtained from the acute ivPTZ test and grip strength test were evaluated by a Student’s t test. Fisher’s exact probability test was used to analyze protection from tonic forelimb and hindlimb extension in the ivPTZ test.
Figure 7 Effects of KA-11, KA-228 and KA-232 on the threshold for the first myoclonic twitch (A), generalized clonus (B) and forelimb tonus (C) in the ivPTZ test in mice. KA-228 and KA-232 were administered i.p., 30 min before seizure induction. Control animals received vehicle. Data are presented as means ± SD (mg/kg PTZ; n = 9–14 animals; the n value varies between groups because some animals were excluded from the study due to unsuccessful catheterization of the vein). The statistical significance for KA-228 and KA-232 was evaluated by a Student’s t test. Data for KA-11 were used from Socała et al. and re-analyzed using one-way ANOVA followed by Dunnett’s post hoc test. * p < 0.05, ** p < 0.01, *** p < 0.001, **** p < 0.0001 vs. the vehicle-treated group (GraphPad Prism 8).

[4] = test system: PTZ-induced clonic seizures in mice; assay: scPTZ-induced convulsions; assay type: in vivo; details: i.p.
Procedure: as §3
(§5) All substances (except PTZ and tetracaine hydrochloride dissolved in water for injections) were suspended in a 1% solution of Tween 80 (Sigma-Aldrich, Saint Louis, MO, USA) in water for injections (Baxter, Warszawa, Poland) or 0.9% NaCl. All drugs were injected intraperitoneally (i.p.) 30 min before all seizure models with 1 mL syringes as a single injection, in a volume of 10 mL/kg. The pretreatment time (30 min) before testing for KA-228 and KA-232 was chosen based on the time to peak of maximum anticonvulsant activity of KA-11 from our previous studies.
The PTZ-induced clonic seizures in mice were determined after sc administration of PTZ at a dose of 100 mg/kg. The animals were administered with increasing doses of KA-228 and KA-232, and the anticonvulsant activity of each drug was evaluated as the ED50 value. This experimental procedure has been described in detail in our previous studies.
as §4

[5] = test system: 6-Hz-induced psychomotor seizures in mice; assay: 6 Hz (32 mA) seizure model; assay type: in vivo
Procedure: as §3, §5
The 6-Hz-induced psychomotor seizures in mice were evoked by current (6 Hz, 0.2 ms rectangular pulse width, 32 mA, 3 s duration) generated by an S48 Square Pulse Stimulator and CCU1 Constant Current Unit (Grass Technologies, West Warwick, RI, USA). The animals were administered with increasing doses of KA-228 and KA-232, and the anticonvulsant activity of each drug was evaluated as the ED50. This experimental procedure has been described in detail in our previous studies.
as §4

[6] = test system: tonic–clonic seizures in mice; assay: Maximal electroshock seizure (MES) test; assay type: in vivo
Procedure: as §3, §5
The tonic–clonic seizures in mice were evoked by an electric stimulus (an alternating current 25 mA, 50 Hz, maximum output voltage 500 V, 0.2 s) generated by a rodent shocker (Hugo Sachs Elektronik, Freiburg, Germany) and delivered via ear-clip electrodes. […] This experimental procedure has been described in detail in our previous studies.
as §4

[7] = test system: Calcium Cav1.2 channels (dihydropyridine site, antagonist radioligand); assay: Radioligand binding, Cav1.2 dihydropyridine site; set-up: species or system rat; details: 10 µM
Procedure: as §1, §2

[8] = Chimney test; details: male, albino Swiss, mouse, in vivo, ip, mice
Procedure: as §3
The chimney test of Boissier et al. was used to quantify the acute adverse-effect potential of KA-228 and KA-232 on motor performance in mice. […]
The ED50 or TD50 values for tested substances in the acute animal models of seizures were calculated using the computer log-probit analysis. Subsequently, the ED50 and TD50 values (±SEM) were statistically analyzed using one-way analysis of variance (ANOVA) followed by the post hoc Dunnett’s test for multiple comparisons. […] The results obtained from the acute ivPTZ test and grip strength test were evaluated by a Student’s t test. […]

CC(C(=O)N1CCN(c2cccc(C(F)(F)F)c2)CC1)N1CCCC1=O (stereo not shown) [KA-228, 1-(1-oxo-1-(4-(3-(trifluoromethyl)phenyl)piperazin-1-yl)propan-2-yl)pyrrolidin-2-one]
effect on neuromuscular strength (grip strength) [1]: did not produce any significant effects | % Inhibition of Control Specific Binding ([2]; 10 µM): −2.9% | % Inhibition of Control Specific Binding ([2]; 100 µM): 15.5% | effect on threshold for forelimb tonus [3]: significantly raised | effect on threshold for generalized clonus [3]: did not cause any significant changes | effect on threshold for the first myoclonic twitch [3]: did not cause any significant changes | ED50 ([4]; Mus musculus, scPTZ 100 mg/kg, 30 min before test, read-out: ED50 PTZ ± SD): 95.4 ± 39.8 mg/kg | TI (TD50/ED50), PTZ ([4]; scPTZ): 1.38 | ED50 ([5]; Mus musculus, ip, 30 min before test, read-out: ED50 6 Hz ± SD): 61.8 mg/kg | TI (TD50/ED50), 6 Hz ([5]; i.p.): 1.72 | ED50 6 Hz ± SD ([5]; i.p., 30 min before test): 76.4 ± 40.76 mg/kg | melting point: 87.1 to 88.4 °C | ED50 ([6]; Mus musculus, ip, 30 min before test, read-out: ED50 MES ± SD): 92.5 ± 16 mg/kg | TI (TD50/ED50), MES ([6]; i.p.): 1.42 | % Inhibition of Control Specific Binding [7]: 8.7% | TD50 at 30 min [8]: 131 ± 36.2 mg/kg
